One test has as its system GI transit. Particulars: humans; cited from earlier work.
Test [1] deals with guinea pig ileum Longitudinal Muscle Myenteric Plexus (LMMP). The experiment in a line: Electrical field stimulated contractions in LMMP strips. As for the experimental part: Male albino guinea pigs (350-450 g) were euthanized by asphyxiation with CO2. A segment of ileum was removed and placed in a dissection bath filled with pre-oxygenated Krebs' solution (118 mM NaCl, 4.6 mM KCl, 1.3 mM NaH2PO4, 1.2 mM MgSO4, 25 mM NaHCO3, 11 mM glucose, and 2.5 mM CaCl2). Longitudinal Muscle Myenteric Plexus (LMMP) strips were prepared as previously described.^26 Electrical field stimulation (EFS) (50 V, 7.5 Hz, unless stated otherwise) was applied through concentric electrodes over longitudinal muscle or L-type stimulating electrodes over circular muscle strips to produce neurogenic contractions/relaxations. Drugs were added in single or cumulative doses depending on the assay to determine their inhibitory effects on the neurogenic responses.

Test [2] has as its system mouse proximal colon circular muscle. The experiment in a line: Colon circular muscle isometric tension recordings, proximal colon. The procedure: (§1) Mice were euthanized by cervical dislocation. The colon was dissected, flushed of its contents, and trimmed of mesentery. […] The tissues, 0.5 cm in length, were suspended vertically along the axis of the circular muscle with a metal triangle tied to a hook under 1 g of passive tension in 15 mL siliconized organ baths.
(§2) Data are presented as the mean±S.E.M, values of P≤0.05 were considered significant.

Test [3] has as its system mouse distal colon circular muscle. Put plainly: Colon circular muscle isometric tension recordings, distal colon. As for the experimental part: as §1, §2
Another test addresses T1, KOR (Homo sapiens, UniProt P41145).
T1 construct: expressed in transfected cells; host or cells: CHO cells (membranes)
The following applies: NAP data from ref 9b, cited from earlier work.

Another test has as its target MOR (Mus musculus, UniProt P42866). Particulars: relative to DAMGO, NAP data from ref 9b; cited from earlier work.
The test system of test [4] is colonic motility. The following applies: rodent models; cited from earlier work.
The subject of a further test is morphine antinociception. Put plainly: Warm water tail immersion (tail flick) test. The following applies: morphine alone, warm water tail flick. In kind it is in vivo, Swiss Webster mice. As for the experimental part: Male Swiss Webster mice (Harlan Laboratories, Indianapolis, Ind.) weighing 25-30 g were housed 5 to a cage in animal care quarters and maintained at […] on a 12 h light-dark cycle. Food and water were available ad libitum. The mice were brought to a test room (22±2° C., 12 h light-dark cycle), marked for identification and allowed 18 h to recover from transport and handling. Protocols and procedures were approved by the Institutional Animal Care and Use Committee (IACUC) at Virginia Commonwealth University Medical Center and comply with the recommendations of the IASP (International Association for the Study of Pain).
The warm water tail-immersion test was performed according to previously described methods using a water bath with the temperature maintained at 56±0.1° C.^20 Briefly, before giving the mice injections, a baseline (control) latency was determined. Only mice with a control reaction time of 2 to 4 s were used. The average baseline latency for these experiments was 3.0±0.1 s. The test latency after drug treatment was assessed at the appropriate time, and a 10 s maximal cutoff time was imposed to prevent tissue damage. Antinociception was quantified according to established procedures as the percentage of maximum possible effect (% MPE), which was calculated as follows: % MPE=[(test latency−control latency)/(10−control latency)]×100.^21 Percentage MPE was calculated for each mouse, using at least six mice per group.
Intracerebroventricular (ICV) injections were performed as described previously.^22 Mice were anesthetized with 2.5% isoflurane and a horizontal incision was made in the scalp. A needle was inserted to a depth of 3 mm into the lateral ventrical (2 mm rostral and 2 mm lateral at a 45° angle from the bregma). At intervals, 5 μL injections of drug or vehicle were made using this guide insertion to the same depth using a needle with a guard in nonanesthetized animals.^22, 23 Animals underwent the anesthetized surgery in the morning of the experiment and were then injected with drug at intervals indicated in the text without additional anesthesia. Immediately after testing, the animals were euthanized to minimize any type of distress, according to IACUC guidelines.

Test [5] deals with colonic motility. Put plainly: Colonic bead expulsion assay. In kind it is in vivo, mice. Particulars: morphine 3 mg/kg; naive mice 17 min. As for the experimental part:
Mice were habituated and fasted as described above for the gastrointestinal transit analysis. […] At 20 min post-injection, animals were anesthetized with isoflurane (1-2 min) to insert a single 2-mm glass bead into the distal colon at a distance of 3 cm from the anus. Bead insertion was accomplished using a glass rod with a fire-polished end to avoid tissue damage and marked at 3 cm.^25 After bead insertion, mice were placed in individual cages and the time to bead expulsion was monitored. Animals were monitored for a maximum of 2 h unless bead expulsion occurred sooner.

In another test the test system is intestinal transit. Put plainly: Charcoal meal test for gastrointestinal transit. The test is classed as in vivo, mice. Particulars: charcoal gavage, compound alone. As for the experimental part:
Forty-eight hours before testing, mice were placed in cages with raised mesh wire to suspend them above their bedding and prevent ingestion of feces or bedding. The animals were habituated for 24 h in the presence of food and water and then fasted for 24 h with free access to water as previously reported.^24 This time frame was chosen to deplete the intestine and colon of any feces. To maintain caloric intake and to avoid hypoglycemia, mice had access to a sugar water solution consisting of a final concentration of 5% dextrose for the first 8 h of the fasting period. […] At 30 min after the administration of the charcoal meal, the mice were euthanized by cervical dislocation, and the small intestine from the jejunum to the cecum was dissected and placed in cold saline to stop peristalsis. The distance traveled by the leading edge of the charcoal meal was measured relative to the total length of the small intestine, and the percentage of intestinal transit for each animal was calculated as percentage transit (charcoal distance)/(small intestinal length)×100. This is referred to as intestinal transit in the text.

Each structure is given as a SMILES string. Values joined by “and” are separate entries in the source; they are usually repeats but may differ in a detail not shown here. Identical values can stand only once. “Also recorded” adds a separate entry of the source.

T1 sequence (P41145 whole entry): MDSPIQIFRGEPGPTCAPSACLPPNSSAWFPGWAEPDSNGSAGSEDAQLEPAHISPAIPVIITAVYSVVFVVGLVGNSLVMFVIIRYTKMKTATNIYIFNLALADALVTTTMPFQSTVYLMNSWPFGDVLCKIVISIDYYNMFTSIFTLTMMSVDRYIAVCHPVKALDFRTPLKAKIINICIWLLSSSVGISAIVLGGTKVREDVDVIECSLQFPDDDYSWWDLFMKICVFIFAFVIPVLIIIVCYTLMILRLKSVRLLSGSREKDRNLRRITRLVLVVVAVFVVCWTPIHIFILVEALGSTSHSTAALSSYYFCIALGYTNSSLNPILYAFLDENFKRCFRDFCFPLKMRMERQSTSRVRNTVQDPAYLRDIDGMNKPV
Chain of MOR (P42866 whole entry): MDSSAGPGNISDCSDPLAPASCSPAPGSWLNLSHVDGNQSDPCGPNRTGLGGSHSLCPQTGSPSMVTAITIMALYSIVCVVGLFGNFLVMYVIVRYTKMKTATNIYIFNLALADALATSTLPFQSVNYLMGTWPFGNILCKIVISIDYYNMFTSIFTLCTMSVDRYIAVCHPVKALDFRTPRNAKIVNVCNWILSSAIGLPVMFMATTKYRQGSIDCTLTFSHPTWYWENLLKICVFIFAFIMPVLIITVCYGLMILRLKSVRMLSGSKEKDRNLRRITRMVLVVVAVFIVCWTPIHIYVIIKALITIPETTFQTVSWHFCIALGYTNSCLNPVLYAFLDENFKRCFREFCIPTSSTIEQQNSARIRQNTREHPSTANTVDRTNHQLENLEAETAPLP

In the case of `CN(C(=O)C(c1ccccc1)c1ccccc1)[C@H](CN1CC[C@H](O)C1)c1ccccc1` [Asimadoline], the “effect on GI transit” value with GI transit was “did not alter GI transit”.

As for `C[C@@H](NC(=O)[C@@H](N)Cc1ccc(O)cc1)C(=O)NCC(=O)N(C)[C@@H](Cc1ccccc1)C(=O)NCCO` [DAMGO, reference compound], the “pIC50 for inhibition of EFS contractions” value in test [1] (guinea pig ileum LMMP) stood at 7.67±0.03. Further, the “effect of nor-BNI on agonist inhibition of EFS contractions” value in test [1] (nor-BNI 0.1 μM, 15 min pretreatment) is “did not significantly effect DAMGO inhibition of EFS contractions”.

Regarding `O=C(NC1CCC2(O)C3Cc4ccc(O)c5c4C2(CCN3CC2CC2)C1O5)c1ccncc1` (stereo not drawn) [NAP, 17-Cyclopropylmethyl-3, 14beta-dihydroxy-4,5alpha-epoxy-6beta-(4′-pyridylcarboxamido)morphinan, reference compound], the “inhibition of morphine-induced contractions” value in test [2] (1 nM antagonist, proximal colon) is “neither NAP nor BNAP showed significant inhibition of morphine-induced contractions”; in test [3] (1 nM antagonist, distal colon) it was “neither NAP nor BNAP showed significant inhibition of morphine-induced contractions”. Also, the “morphine pD2 in presence of antagonist” value came to 5.9 in [2] (10 nM antagonist, proximal colon (naive 6.8)) and 5.3 in test [3] (100 nM antagonist, distal colon (naive 6.0)). Also, the “further reduction of morphine pD2” value in test [2] (100 nM versus 10 nM antagonist, proximal colon) was “no further reduction of the morphine pD2”. Further, the “contractions induced by compound alone” value is “Neither BNAP nor NAP alone at concentrations up to 30 μM induced contractions” in [2] (up to 30 μM, proximal colon preparation) and “Neither BNAP nor NAP alone at concentrations up to 30 μM induced contractions” in [3] (up to 30 μM, distal colon preparation). Further, in [3] (10 nM antagonist, distal colon), the “antagonism of morphine effects” value was “neither NAP nor BNAP showed significant antagonism of morphine effects”. Besides, at KOR (35S-GTP[γS]), the EC50 was 28.8 ± 14.4 nM. Further, the “% max of agonist” value is 45.5±4.4% at KOR (relative to U50,488H); 22.72±0.84% and 22.7 ± 0.8% on MOR.

For the molecule `COC(=O)[C@@H]1C[C@H](OC(C)=O)C(=O)[C@H]2[C@@]1(C)CC[C@H]1C(=O)O[C@H](c3ccoc3)C[C@]21C` [Salvinorin A], in the test on colonic motility [4], the “effect on colonic / GI motility” value is listed as “reduced colonic motility; also recorded: can reduce GI motility”.

Regarding `CN1CC[C@]23c4c5ccc(O)c4O[C@H]2[C@@H](O)C=C[C@H]3[C@H]1C5` [morphine, reference compound], the antinociception entry with morphine antinociception was “dose dependently induced antinociception”. In the test on colonic motility [5], this molecule yielded a bead expulsion time of 75 min. Besides, in the test on intestinal transit, the “reduction of intestinal motility” value is 3 fold.

One may read the EC50 as the concentration needed to bring the measured effect to its halfway point.
